We go through eight compounds from ChEMBL document CHEMBL1201862, “PubChem BioAssay data set” (2004).

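Protocol summary: plate cells (96-well), add compound at 5 concentrations, incubate 48 h, interpolate endpoints linearly. GI50: concentration for 50% inhibition of growth.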 Activity calls are given as the source filed them. Cut-off read from the data, not from the text of the source: active = GI50 up to about 1.1 µM and inactive = higher. Where only a bound is given, the exact number is not on record here.

What all share (test): NCI anticancer screen, dose series, 48 h
The test system of assay [1] is RXF 393.
Assay [2] has as its system HT-29.
The test system of assay [3] is OVCAR-4.
Assay [4] deals with OVCAR-5.
Assay [5] deals with UACC-257.
In assay [6] the test system is OVCAR-8.
Assay [7] relates to SF-268.
Assay [8] concerns EKVX.
The test system of assay [9] is SF-295.
Assay [10] has as its system NCI-H226.
Assay [11] deals with SNB-19.
The test system of assay [12] is CCRF-CEM.
The subject of assay [13] is SNB-75.
Assay [14] concerns SN12C.
In assay [15] the test system is SF-539.
The subject of assay [16] is SK-MEL-5.
Assay [17] deals with UACC-62.
In assay [18] the test system is HCT-15.
For assay [19], the system named is UO-31.
For assay [20], the system named is ACHN.

`O=C1CCC23CC(C=CC=C12)n1c(=O)n(-c2ccccc2)c(=O)n13` (configuration not stated): the GI50 was 99.3 µM (inactive) in assay [1]; > 88.9 µM (inactive) in assay [2]; > 100 µM (inactive) in assay [3]; > 100 µM (inactive) in assay [4]; > 100 µM (inactive) in [5]; > 100 µM (inactive) in [6]. Besides, the GI50 is > 73.6 µM (inactive) in [7]; > 100 µM (inactive) in [8]; > 100 µM (inactive) in assay [9]; > 63.4 µM (inactive) in assay [10]; > 100 µM (inactive) in assay [11]; 42.4 µM (inactive) in assay [12]. Also, the GI50 in [13] was > 100 µM (inactive); in [14], > 100 µM (inactive); in [15], > 100 µM (inactive); in assay [16], > 87.3 µM (inactive); in assay [17], > 100 µM (inactive); in assay [18], more than 78.7 µM. In [19], the GI50 was > 64.4 µM (inactive).
Regarding `N=S(=O)(c1ccccc1)c1ccccc1[N+](=O)[O-]` (configuration not stated), the GI50 in [1], in [2], in assay [3], in assay [4], in [5] and in assay [6] was > 100 µM (inactive) each time. In addition, the GI50 in assay [8], in assay [9], in assay [10], in assay [11], in assay [12] and in assay [13] was > 100 µM (inactive) throughout. In addition, the GI50 in [14] is > 100 µM (inactive); in [15], > 100 µM (inactive); in assay [20] it was > 100 µM (inactive); in assay [16], > 100 µM (inactive); in [17], > 100 µM (inactive); in assay [18] it was more than 100 µM. In assay [19], the GI50 is > 100 µM (inactive).
Regarding `CCCCN(CCCC)CC(=O)c1ccc2cc(Cl)c3ccccc3c2c1`, the GI50 in [1] is 13.4 µM (inactive); in assay [2] it was 17.4 µM (inactive); in [3] it was 24.2 µM (inactive); in assay [4] it was 51.1 µM (inactive); in assay [5], 31.9 µM (inactive); in [6], 20 µM (inactive). In addition, the GI50 is 16.1 µM (inactive) in assay [7]; 67.3 µM (inactive) in [8]; 31 µM (inactive) in assay [9]; 25.3 µM (inactive) in assay [10]; 33.7 µM (inactive) in assay [11]; > 100 µM (inactive) in [12]. For the same compound, the GI50 is 29.8 µM (inactive) in [13]; 50.7 µM (inactive) in assay [14]; 42.6 µM (inactive) in assay [15]; 20.4 µM (inactive) in assay [20]; 17.9 µM (inactive) in [16]; 32.6 µM (inactive) in assay [17]. The GI50 was 22.9 µM in [18] and 20.6 µM (inactive) in [19].
As for `COc1ccccc1/C=C(\C#N)c1ccccc1`, the GI50 in assay [1] was 27.7 µM (inactive); in assay [2], 29.9 µM (inactive); in assay [3], 30.2 µM (inactive); in [4], > 100 µM (inactive); in assay [5] it was 31.1 µM (inactive); in assay [6] it was 50.5 µM (inactive). Besides, the GI50 in assay [7] was 82.8 µM (inactive); in [9], 52.7 µM (inactive); in assay [10], 3.13 µM (inactive); in assay [12], 17.7 µM (inactive); in [13] it was 25.9 µM (inactive); in [14], 49.1 µM (inactive). The GI50 was 34.8 µM (inactive) in [15]; 59.4 µM (inactive) in assay [20]; 16.7 µM (inactive) in [16]; 44.9 µM (inactive) in [17]; 18.4 µM in assay [18]; 28.8 µM (inactive) in assay [19].
For the compound `COc1cc(C2c3c(ccc4ccccc34)C(=O)C3CCC(=O)N32)cc(OC)c1OC` (configuration not stated), the GI50 in assay [1], in assay [2], in assay [3], in assay [4], in assay [5] and in assay [6] was > 50 µM (inactive) each time. For the same compound, the GI50 in assay [7], in assay [8], in [9], in assay [10], in assay [11] and in [12] was > 50 µM (inactive) in each case. For the same compound, the GI50 in assay [13] was > 50 µM (inactive); in assay [14], > 50 µM (inactive); in assay [15], > 50 µM (inactive); in [20], > 50 µM (inactive); in [17], > 50 µM (inactive); in assay [18] it was more than 50 µM. Further, the GI50 in [19] was > 50 µM (inactive).
For the compound `Cn1c(=O)c(-c2ccccc2)c(N=[N+]=[N-])c2ccccc21`, the GI50 in assay [1] was 80.2 µM (inactive); in assay [2], 23.5 µM (inactive); in [3], 56.5 µM (inactive); in [4], > 100 µM (inactive); in assay [5] it was > 100 µM (inactive); in assay [6], 49.3 µM (inactive). Further, the GI50 is 39.5 µM (inactive) in [7]; 47.9 µM (inactive) in assay [9]; 67 µM (inactive) in assay [10]; > 100 µM (inactive) in assay [11]; 30.8 µM (inactive) in assay [12]; 4.46 µM (inactive) in [13]. The GI50 is 95.9 µM (inactive) in assay [14]; 54 µM (inactive) in assay [15]; 30.8 µM (inactive) in [20]; 53.2 µM (inactive) in [16]; 42.3 µM (inactive) in [17]; 39.4 µM in [18]. In assay [19], the GI50 is 46.8 µM (inactive).
Turning to `N#C[C@H](OC1OC(COC2OC(CO)C(O)C(O)C2O)C(O)C(O)C1O)c1ccccc1` (some centres not stated), the GI50 in assay [1] was > 250 µM (inactive); in assay [2] it was > 250 µM (inactive); in assay [3] it was > 250 µM (inactive); in [4], > 250 µM (inactive); in assay [5] it was 234 µM (inactive); in assay [6], > 250 µM (inactive). Moreover, the GI50 was > 250 µM (inactive) in assay [7]; > 250 µM (inactive) in [8]; 203 µM (inactive) in [9]; 191 µM (inactive) in assay [10]; > 250 µM (inactive) in assay [11]; > 250 µM (inactive) in assay [12]. Besides, the GI50 in assay [13] was > 250 µM (inactive); in assay [14], > 250 µM (inactive); in [15], > 214 µM (inactive); in assay [16] it was > 250 µM (inactive); in assay [17], 247 µM (inactive); in assay [18], more than 250 µM. In addition, the GI50 in assay [19] is > 250 µM (inactive).
Take `SC1=Nc2ccccc2-c2nc(-c3ccccc3)cc(-c3ccc(Br)cc3)c2C1`: the GI50 in assay [1] was 1.7 µM (inactive); in assay [2], 2.07 µM (inactive); in assay [3] it was 0.433 µM (active); in [4], 2.81 µM (inactive); in assay [5], 3.15 µM (inactive); in assay [6], 1.1 µM (active). Besides, the GI50 in assay [7] is 2.1 µM (inactive); in assay [8], 1.33 µM (inactive); in assay [9], 1.89 µM (inactive); in [10], 3.18 µM (inactive); in assay [11], 1.21 µM (inactive); in [12] it was 1.88 µM (inactive). Moreover, the GI50 in [13] is 1.26 µM (inactive); in assay [14], 0.791 µM (active); in assay [15], 3.27 µM (inactive); in assay [16] it was 8.3 µM (inactive); in [17], 2.26 µM (inactive); in [18] it was 3.54 µM. Also, in assay [19], the GI50 is 1.57 µM (inactive).
